Assays:
corn = assay: Test B pre/postemergence corn; assay type: in vivo, Zea mays
Outline: (§1)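 Response is a visual 0-to-10 score relative to untreated plants, where 0 means no effect and 10 means complete control, taken twelve to sixteen days after application. Treatments went onto soil at planting and onto foliage of 1- to 4-leaf plants, using a surfactant-containing non-phytotoxic solvent.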

wheat = assay: Test B pre/postemergence wheat; assay type: in vivo, Triticum aestivum
Outline: as §1

velvetleaf = assay: Test B pre/postemergence velvetleaf; assay type: in vivo, Abutilon theophrasti
Outline: as §1

pigweed = assay: Test B pre/postemergence pigweed; assay type: in vivo, Amaranthus retroflexus
Outline: as §1

surinam grass = assay: Test B pre/postemergence surinam grass; assay type: in vivo, Brachiaria decumbens
Outline: as §1

giant foxtail = assay: Test B pre/postemergence giant foxtail; assay type: in vivo, Setaria faberii
Outline: as §1

soybean = assay: Test B pre/postemergence soybean; assay type: in vivo, Glycine max
Outline: as §1

sugar beet = assay: Test B pre/postemergence sugar beet; assay type: in vivo, Beta vulgaris
Outline: as §1

crabgrass = assay: Test B pre/postemergence crabgrass; assay type: in vivo, Digitaria sanguinalis
Outline: as §1

blackgrass = assay: Test B pre/postemergence blackgrass; assay type: in vivo, Alopecurus myosuroides
Outline: as §1

morningglory = assay: Test B pre/postemergence morningglory; assay type: in vivo, Ipomoea hederacea
Outline: as §1

bedstraw = assay: Test B pre/postemergence bedstraw; assay type: in vivo, Galium aparine
Outline: as §1

purple nutsedge = assay: Test B pre/postemergence purple nutsedge; assay type: in vivo, Cyperus rotundus
Outline: as §1

wild oat = assay: Test B pre/postemergence wild oat; assay type: in vivo, Avena fatua
Outline: as §1

cocklebur = assay: Test B pre/postemergence cocklebur; assay type: in vivo, Xanthium strumarium
Outline: as §1

rape = assay: Test B pre/postemergence rape; assay type: in vivo, Brassica napus
Outline: as §1

[1] = Postemergence, Rate 62 g/ha, scale 0 to 10, 0 is no effect, 10 is complete control
[2] = Postemergence, Rate 125 g/ha, scale of 0 to 10 where 0 is no effect and 10 is complete control
[3] = Postemergence, Rate 250 g/ha, scale of 0 to 10, 0 is no effect, 10 is complete control
[4] = Preemergence, Rate 62 g/ha, scale of 0 to 10 where 0 is no effect and 10 is complete control
[5] = Preemergence, Rate 125 g/ha, scale of 0 to 10 where 0 is no effect and 10 is complete control
[6] = Preemergence, Rate 250 g/ha, scale 0 to 10 (0 no effect, 10 complete control)
[7] = Preemergence, Rate 500 g/ha, scale of 0 to 10 where 0 is no effect and 10 is complete control
[8] = Rate 500 g/ha, Postemergence, scale 0 to 10, 0 is no effect, 10 is complete control
[9] = Preemergence, Rate 125 g/ha, scale 0 to 10, 0 is no effect, 10 is complete control
[10] = Preemergence, Rate 250 g/ha, scale 0 to 10, 0 is no effect, 10 is complete control
[11] = Preemergence, Rate 500 g/ha, scale 0 to 10, 0 is no effect, 10 is complete control

Compound: CC(C)N(C(=O)n1oc(=O)n(Cc2nnc(Cl)s2)c1=O)c1ccccc1 [Compound 654]
- Plant response rating, Corn (corn; [1]): 0
- Corn plant response rating (corn; [2]): 0
- Corn plant response rating (corn; [3]): 0
- Corn plant response rating (corn; [4]): 0
- Corn plant response rating (corn; [5]): 0
- Plant response rating, Corn (corn; [6]): 0
- Plant response rating, Corn (corn; [7]): 0
- Corn plant response rating (corn; [8]): 0
- Plant response rating, Wheat (wheat; [1]): 0
- Wheat plant response rating (wheat; [2]): 0
- Wheat plant response rating (wheat; [4]): 0
- Wheat plant response rating (wheat; [5]): 0
- Plant response rating, Wheat (wheat; [6]): 0
- Plant response rating, Wheat (wheat; [7]): 0
- Wheat plant response rating (wheat; [8]): 0
- Plant response rating, Velvetleaf (velvetleaf; [1]): 0
- Velvetleaf plant response rating (velvetleaf; [2]): 0
- Velvetleaf plant response rating (velvetleaf; [4]): 0
- Velvetleaf plant response rating (velvetleaf; [5]): 0
- Plant response rating, Velvetleaf (velvetleaf; [6]): 0
- Plant response rating, Velvetleaf (velvetleaf; [7]): 0
- Velvetleaf plant response rating (velvetleaf; [8]): 0
- Plant response rating, Redroot pigweed (pigweed; [1]): 0
- Redroot pigweed plant response rating (pigweed; [2]): 0
- Redroot pigweed plant response rating (pigweed; [4]): 0
- Redroot pigweed plant response rating (pigweed; [5]): 0
- Plant response rating, Redroot pigweed (pigweed; [6]): 3
- Plant response rating, Redroot pigweed (pigweed; [7]): 5
- Redroot pigweed plant response rating (pigweed; [8]): 0
- Plant response rating, B. signalgrass (surinam grass; [1]): 0
- Plant response rating, B. signalgrass (surinam grass; [2]): 0
- B. signalgrass plant response rating (surinam grass; [3]): 0
- B. signalgrass plant response rating (surinam grass; [4]): 0
- B. signalgrass plant response rating (surinam grass; [5]): 0
- Plant response rating, B. signalgrass (surinam grass; [6]): 0
- Plant response rating, B. signalgrass (surinam grass; [7]): 7
- B. signalgrass plant response rating (surinam grass; [8]): 0
- Plant response rating, Giant foxtail (giant foxtail; [1]): 0
- Giant foxtail plant response rating (giant foxtail; [2]): 2
- Giant foxtail plant response rating (giant foxtail; [3]): 5
- Giant foxtail plant response rating (giant foxtail; [4]): 0
- Giant foxtail plant response rating (giant foxtail; [5]): 6
- Plant response rating, Giant foxtail (giant foxtail; [6]): 9
- Plant response rating, Giant foxtail (giant foxtail; [7]): 9
- Giant foxtail plant response rating (giant foxtail; [8]): 7
- Plant response rating, Soybean (soybean; [1]): 0
- Soybean plant response rating (soybean; [2]): 0
- Soybean plant response rating (soybean; [4]): 0
- Soybean plant response rating (soybean; [5]): 0
- Plant response rating, Soybean (soybean; [6]): 0
- Plant response rating, Soybean (soybean; [7]): 0
- Soybean plant response rating (soybean; [8]): 0
- Plant response rating, Sugarbeets (sugar beet; [1]): 0
- Sugarbeets plant response rating (sugar beet; [2]): 0
- Sugarbeets plant response rating (sugar beet; [4]): 0
- Sugarbeets plant response rating (sugar beet; [5]): 0
- Plant response rating, Sugarbeets (sugar beet; [6]): 0
- Plant response rating, Sugarbeets (sugar beet; [7]): 0
- Sugarbeets plant response rating (sugar beet; [8]): 0
- Plant response rating, Crabgrass (crabgrass; [1]): 0
- Crabgrass plant response rating (crabgrass; [2]): 0
- Crabgrass plant response rating (crabgrass; [3]): 2
- Crabgrass plant response rating (crabgrass; [4]): 0
- Crabgrass plant response rating (crabgrass; [5]): 3
- Plant response rating, Crabgrass (crabgrass; [6]): 7
- Plant response rating, Crabgrass (crabgrass; [7]): 9
- Crabgrass plant response rating (crabgrass; [8]): 7
- Plant response rating, Blackgrass (blackgrass; [1]): 0
- Blackgrass plant response rating (blackgrass; [2]): 0
- Blackgrass plant response rating (blackgrass; [3]): 0
- Blackgrass plant response rating (blackgrass; [4]): 0
- Blackgrass plant response rating (blackgrass; [5]): 0
- Plant response rating, Blackgrass (blackgrass; [6]): 2
- Plant response rating, Blackgrass (blackgrass; [7]): 7
- Blackgrass plant response rating (blackgrass; [8]): 0
- Plant response rating, Morningglory (morningglory; [1]): 3
- Morningglory plant response rating (morningglory; [2]): 4
- Morningglory plant response rating (morningglory; [3]): 10
- Morningglory plant response rating (morningglory; [4]): 0
- Morningglory plant response rating (morningglory; [5]): 0
- Plant response rating, Morningglory (morningglory; [6]): 0
- Plant response rating, Morningglory (morningglory; [7]): 0
- Morningglory plant response rating (morningglory; [8]): 10
- Bedstraw plant response rating (bedstraw; [3]): 0
- Bedstraw plant response rating (bedstraw; [4]): 0
- Bedstraw plant response rating (bedstraw; [5]): 0
- Plant response rating, Bedstraw (bedstraw; [6]): 0
- Plant response rating, Bedstraw (bedstraw; [7]): 0
- Bedstraw plant response rating (bedstraw; [8]): 0
- Plant response rating, Nutsedge (purple nutsedge; [1]): 0
- Nutsedge plant response rating (purple nutsedge; [2]): 0
- Nutsedge plant response rating (purple nutsedge; [4]): 0
- Plant response rating, Nutsedge (purple nutsedge; [6]): 0
- Plant response rating, Nutsedge (purple nutsedge; [7]): 0
- Plant response rating, Wild oats (wild oat; [1]): 0
- Wild oats plant response rating (wild oat; [2]): 0
- Wild oats plant response rating (wild oat; [4]): 0
- Wild oats plant response rating (wild oat; [5]): 0
- Plant response rating, Wild oats (wild oat; [6]): 0
- Plant response rating, Wild oats (wild oat; [7]): 2
- Wild oats plant response rating (wild oat; [8]): 0
- Plant response rating, Cocklebur (cocklebur; [1]): 0
- Cocklebur plant response rating (cocklebur; [2]): 0
- Cocklebur plant response rating (cocklebur; [3]): 0
- Cocklebur plant response rating (cocklebur; [4]): 0
- Cocklebur plant response rating (cocklebur; [5]): 0
- Plant response rating, Cocklebur (cocklebur; [6]): 0
- Plant response rating, Cocklebur (cocklebur; [7]): 0
- Cocklebur plant response rating (cocklebur; [8]): 0
- Plant response rating, Rape (rape; [1]): 0
- Rape plant response rating (rape; [2]): 0
- Rape plant response rating (rape; [4]): 0
- Rape plant response rating (rape; [5]): 0
- Plant response rating, Rape (rape; [6]): 0
- Plant response rating, Rape (rape; [7]): 0
- Rape plant response rating (rape; [8]): 0

Compound: COCn1c(=O)on(C(=O)N(c2ccc(F)cc2F)C(C)C)c1=O [Compound 503]
- Plant response rating, Corn (corn; [4]): 3
- Corn plant response rating (corn; [9]): 5
- Corn plant response rating (corn; [7]): 9
- Plant response rating, Wheat (wheat; [4]): 0
- Wheat plant response rating (wheat; [9]): 2
- Wheat plant response rating (wheat; [7]): 8
- Plant response rating, Velvetleaf (velvetleaf; [4]): 6
- Velvetleaf plant response rating (velvetleaf; [9]): 6
- Velvetleaf plant response rating (velvetleaf; [7]): 8
- Plant response rating, Redroot pigweed (pigweed; [4]): 8
- Redroot pigweed plant response rating (pigweed; [9]): 10
- Redroot pigweed plant response rating (pigweed; [7]): 10
- Plant response rating, B. signalgrass (surinam grass; [4]): 6
- B. signalgrass plant response rating (surinam grass; [9]): 8
- B. signalgrass plant response rating (surinam grass; [10]): 8
- B. signalgrass plant response rating (surinam grass; [11]): 9
- Plant response rating, Giant foxtail (giant foxtail; [4]): 9
- Giant foxtail plant response rating (giant foxtail; [9]): 9
- Giant foxtail plant response rating (giant foxtail; [7]): 10
- Plant response rating, Soybean (soybean; [4]): 2
- Soybean plant response rating (soybean; [9]): 3
- Soybean plant response rating (soybean; [7]): 7
- Plant response rating, Sugarbeets (sugar beet; [4]): 2
- Sugarbeets plant response rating (sugar beet; [9]): 6
- Sugarbeets plant response rating (sugar beet; [7]): 9
- Plant response rating, Crabgrass (crabgrass; [4]): 8
- Crabgrass plant response rating (crabgrass; [9]): 8
- Crabgrass plant response rating (crabgrass; [7]): 9
- Plant response rating, Blackgrass (blackgrass; [4]): 10
- Blackgrass plant response rating (blackgrass; [9]): 9
- Blackgrass plant response rating (blackgrass; [10]): 9
- Blackgrass plant response rating (blackgrass; [7]): 10
- Plant response rating, Morningglory (morningglory; [4]): 2
- Morningglory plant response rating (morningglory; [9]): 2
- Morningglory plant response rating (morningglory; [7]): 7
- Plant response rating, Bedstraw (bedstraw; [4]): 5
- Bedstraw plant response rating (bedstraw; [9]): 5
- Bedstraw plant response rating (bedstraw; [10]): 6
- Bedstraw plant response rating (bedstraw; [11]): 10
- Plant response rating, Nutsedge (purple nutsedge; [4]): 0
- Nutsedge plant response rating (purple nutsedge; [9]): 0
- Nutsedge plant response rating (purple nutsedge; [7]): 2
- Plant response rating, Wild oats (wild oat; [4]): 6
- Wild oats plant response rating (wild oat; [9]): 10
- Wild oats plant response rating (wild oat; [7]): 9
- Plant response rating, Cocklebur (cocklebur; [4]): 0
- Cocklebur plant response rating (cocklebur; [9]): 0
- Cocklebur plant response rating (cocklebur; [10]): 0
- Cocklebur plant response rating (cocklebur; [7]): 3
- Plant response rating, Rape (rape; [4]): 4
- Rape plant response rating (rape; [9]): 8
- Rape plant response rating (rape; [7]): 9

Source: US6737383B1, “Herbicidal oxadiazolidines” (priority 1999, dated 2004)
